According to US20130273649A1, “Culture medium for pluripotent stem cells” (UNIVERSITY OF SOUTHERN CALIFORNIA, priority 2012, published 2013):

Tested on: β-catenin/TCF-responsive TOPFlash reporter
Assay: TOPFlash reporter assay in H9 human ESCs
Format: cell-based
Conditions: 24 h
Method: (A) TOPFlash™ assay in H9 human ESCs subjected to the indicated treatments for 24 h. Data represent mean±s.d. of three biological replicates. (B) Representative phase contrast and alkaline phosphatase (AP) staining images of H9 human ESCs cultured in the indicated conditions for 3 passages. (C) Phase contrast images of H9 human ESCs cultured in CHIR/XAV or CHIR/IWR-1 for 11 passages. (D) Colony forming efficiency assay of H9 human ESCs cultured in FGF2 or CHIR/IWR-1 conditions. Data represent mean±s.d. of three biological replicates. Right panel: a representative image showing AP staining of colonies formed from H9 human ESCs cultured in either FGF2 or CHIR/IWR-1 condition. (E) Human ESCs cultured in CHIR/IWR-1 for 11 passages were immunostained with the indicated antibodies. (F) Embryoid bodies (EBs) were generated from H9 human ESCs cultured in CHIR/IWR-1 for 11 passages. The outgrowths of EBs were immunostained with the indicated antibodies. (G) H&E staining of teratomas generated from H9 ESCs cultured in CHIR/IWR-1 for 20 passages. (H) Western blot analysis of Axin1 and Axin2 expression in HES3 human ESCs treated with the indicated cytokines/inhibitors for 24 h. (I) Immunofluorescence images of H9 human ESCs (passage 5 in CHIR) overexpressing Flag-tagged Axin2. (J) Representative phase contrast and immunofluorescence images of HES2 human ESCs overexpressing ΔNβ-catenin-ERT2 at passage 5 in basal medium only. These cells were cultured in basal medium only for more than 10 passages and remained morphologically undifferentiated. (K) Phase contrast images of HES2 human ESCs overexpressing ΔNβ-catenin (left panel, passage 2 in basal medium/FGF2) or ΔNβ-catenin/A295W/I296W mutant (right panel, passage 5 in basal medium only). Scale bars, 50 μm (B, C, E-G, and I-K). (L) Model of mouse EpiSC and human ESC self-renewal mediated by β-catenin. In the absence of Wnt or GSK3 inhibitor, a β-catenin destruction complex, containing Axin1, GSK3, and APC is formed, leading to the degradation of β-catenin and differentiation (left). In the presence of Wnt or GSK3 inhibitor, β-catenin is stabilized and can initiate cellular responses related to both self-renewal and differentiation. Stabilized β-catenin induces differentiation when it translocates into the nucleus and binds TCFs to activate downstream targets (middle). Addition of XAV or IWR-1 stabilizes Axin2. […]
For quantifying relative Oct3/4 enhancer activities, pGL3-Oct4 DE and pGL3-Oct4 PE plasmids (gifts from Hans Schöler's lab) were co-transfected with the Renilla vector, using the Amaxa™ Transfection Kit (Lonza). […] For quantifying relative β-catenin/Tcf transcriptional activity, pGL2-SuperTOP™ plasmid (gift from Randall Moon) was co-transfected with the Renilla vector and assayed accordingly.

In the case of `Oc1nc(-c2ccc(C(F)(F)F)cc2)nc2c1CSCC2` [XAV939, 3,5,7,8-Tetrahydro-2-[4-(trifluoromethyl)phenyl]-4H-thiopyrano[4,3-d]pyrimidin-4-one], the “effect on TOPFlash activity induced by CHIR” value (added to CHIR) is reported as “abolished this TOPFlash™ activity”.
In the case of `Cc1c[nH]c(-c2cnc(NCCNc3ccc(C#N)cn3)nc2-c2ccc(Cl)cc2Cl)n1` [CHIR99021, 6-((2-((4-(2,4-Dichlorophenyl)-5-(4-methyl-1H-imidazol-2-yl)pyrimidin-2-yl)amino)ethyl)amino)nicotinonitrile], the TOPFlash reporter activity is reported as “strongly induced”.
